According to patent US6642392B1 (priority 1997, dated 2003):
Read-outs that look alike come from different tables or passages of the source.

What was measured:
Type in all cases: in vivo
[1] = tested on: Eiysiphe graminis f. sp. tritici; assay: Test A: wheat powdery mildew, preventive spray on wheat seedlings; conditions: for Test A disease control rating (100 = 100% disease control, 0 = no disease control): wheat seedlings sprayed to run-off, inoculated the following day, rating relative to controls, unmarked compounds (standard test rate); for Test A disease control rating: wheat powdery mildew
Procedure, shortened: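 Preventive test: seedlings inoculated with powdery mildew spores one day after run-off spraying of a suspension. Ratings after 7 days in a 20° C growth chamber express percent disease control versus controls.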

Puccinia recondita = assay: Test B: wheat leaf rust, preventive spray on wheat seedlings; conditions: for Test B disease control rating (100 = 100% disease control, 0 = no disease control): wheat seedlings sprayed to run-off, inoculated the following day, rating relative to controls, unmarked compounds (standard test rate); for Test B disease control rating: wheat leaf rust
Procedure, shortened: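 Preventive test: P. recondita spores were applied one day after a run-off spray of compound suspension on wheat seedlings. Plants had 24 h at 20 °C in saturated air plus 6 days in a 20 °C growth chamber. Scoring is % disease control (100 = full) relative to controls.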

Pyricularia oryzae = conditions: for Test C disease control rating (100 = 100% disease control, 0 = no disease control): rice seedlings sprayed to run-off, inoculated the following day, rating relative to controls, unmarked compounds (standard test rate); for Test C disease control rating: rice blast
Phytophthora infestans = conditions: for Test D disease control rating (100 = 100% disease control, 0 = no disease control): tomato seedlings sprayed to run-off, inoculated the following day, rating relative to controls, unmarked compounds (standard test rate); for Test D disease control rating: tomato late blight
Botrytis cinerea = assay: Test E: gray mold, preventive spray on cucumber seedlings; conditions: for Test E disease control rating (100 = 100% disease control, 0 = no disease control): cucumber seedlings sprayed to run-off, inoculated the following day, rating relative to controls, unmarked compounds (standard test rate); for Test E disease control rating: gray mold on cucumber
Procedure, shortened: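 Preventive spray on cucumber seedlings used a suspension (3% acetone, 250 ppm Trem 014), applied to run-off one day before inoculation with Botrytis cinerea spores. Plants were held 48 h at 20° C in saturated air, then 5 days at 20° C. Percent disease control was scored relative to untreated plants.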

[2] = 100 = 100% disease control, 0 = no control relative to controls, unmarked entries (standard test concentration)
[3] = 100 = 100% disease control, 0 = no control, unmarked entries (standard test concentration)

Row | SMILES | Test A disease control rating [1, 2] | Test B disease control rating (Puccinia recondita; [3]) | Test C disease control rating (Pyricularia oryzae; [3]) | Test D disease control rating (Phytophthora infestans; [3]) | Test E disease control rating (Botrytis cinerea; [3]) | further results
1 | C=CC(C)(C)C(C#N)C(=O)N[C@H](C)COc1cc(Cl)ccc1Cl (single isomer, unassigned) [215a] |  |  |  |  |  | Test A disease control rating (100 = 100% disease control, 0 = no disease control) [1]: 63%; Test B disease control rating (100 = 100% disease control, 0 = no disease control) (Puccinia recondita): 0%; Test C disease control rating (100 = 100% disease control, 0 = no disease control) (Pyricularia oryzae): 99%; Test D disease control rating (100 = 100% disease control, 0 = no disease control) (Phytophthora infestans): 45%; Test E disease control rating (100 = 100% disease control, 0 = no disease control) (Botrytis cinerea): 0%
2 | CCC1(C(=O)NC(C)COc2ccc(Cl)cc2Cl)C(C)C1(Cl)Cl (stereo not drawn) [compound 112] |  |  |  |  |  | Test A disease control rating ([1]; tested at 40 ppm): 71%; Test B disease control rating (Puccinia recondita; tested at 40 ppm): 0%; Test C disease control rating (Pyricularia oryzae; tested at 40 ppm): 0%; Test D disease control rating (Phytophthora infestans; tested at 40 ppm): 0%; Test E disease control rating (Botrytis cinerea; tested at 40 ppm): 0%
3 | CC(COc1ccccc1SC(F)(F)C(F)F)NC(=O)C(C#N)C(C)(C)C (mixture of isomers) [compound 202] | 0% | 0% | 53% | 0% | 0% | 
4 | CC(C=Cc1cc(F)ccc1F)NC(=O)C(C#N)C(C)(C)C (single isomer, unassigned) [229a] |  |  |  |  |  | Test A disease control rating (100 = 100% disease control, 0 = no disease control) [1]: 0%; Test B disease control rating (100 = 100% disease control, 0 = no disease control) (Puccinia recondita): 0%; Test C disease control rating (100 = 100% disease control, 0 = no disease control) (Pyricularia oryzae): 100%; Test D disease control rating (100 = 100% disease control, 0 = no disease control) (Phytophthora infestans): 0%; Test E disease control rating (100 = 100% disease control, 0 = no disease control) (Botrytis cinerea): 55%
5 | Cc1c(Cl)cc(C#N)n1OCC(C)NC(=O)C(C#N)C(C)C(C)(C)C (mixture of isomers) [71a] | 0% | 0% | 53% | 19% | 0% | 
6 | CC(COc1ccccc1C(C)(C)C)NC(=O)C(C#N)C(C)(C)C (mixture of isomers) [compound 23] | 0% | 0% | 97% | 48% | 0% | 
7 | C=CC(C)(C)C(C#N)C(=O)N[C@H](C)COc1cc(F)ccc1Cl (single isomer, unassigned) [192b] | 0% | 0% | 100% | 0% | 0% | 
8 | CCC1(C(=O)NC(C)COc2c(C#N)cccc2C(F)(F)F)C(C)C1(Cl)Cl (mixture of isomers) [compound 134] | 0% | 0% | 0% | 30% | 0% | 
9 | CCC1(C(=O)NCC=Cc2cccc(Br)c2)C(C)C1(Cl)Cl (stereo not drawn) [compound 160] |  |  |  |  |  | Test A disease control rating ([1]; tested at 40 ppm): 57%; Test B disease control rating (Puccinia recondita; tested at 40 ppm): 86%; Test C disease control rating (Pyricularia oryzae; tested at 40 ppm): 52%; Test D disease control rating (Phytophthora infestans; tested at 40 ppm): 85%; Test E disease control rating (Botrytis cinerea; tested at 40 ppm): 0%
10 | CCc1ccccc1OCC(C)NC(=O)C(C#N)C(C)(C)C (mixture of isomers) [20a] | 63% | 0% | 97% | 70% | 0% | 
11 | CC(C=Cc1ccccc1)NC(=O)C(C#N)C(C)(C)C (mixture of isomers) [compound 228] |  |  |  |  |  | Test A disease control rating (100 = 100% disease control, 0 = no disease control) [1]: 95%; Test B disease control rating (100 = 100% disease control, 0 = no disease control) (Puccinia recondita): 0%; Test C disease control rating (100 = 100% disease control, 0 = no disease control) (Pyricularia oryzae): 52%; Test D disease control rating (100 = 100% disease control, 0 = no disease control) (Phytophthora infestans): 7%; Test E disease control rating (100 = 100% disease control, 0 = no disease control) (Botrytis cinerea): 47%
12 | CCC(=CCNC(=O)C1(CC)C(C)C1(Cl)Cl)c1cc(Cl)ccc1Cl (stereo not drawn) [compound 262] |  |  |  |  |  | Test A disease control rating (100 = 100% disease control, 0 = no disease control) [1]: 98%; Test B disease control rating (100 = 100% disease control, 0 = no disease control) (Puccinia recondita): 0%; Test C disease control rating (100 = 100% disease control, 0 = no disease control) (Pyricularia oryzae): 53%; Test D disease control rating (100 = 100% disease control, 0 = no disease control) (Phytophthora infestans): 99%; Test E disease control rating (100 = 100% disease control, 0 = no disease control) (Botrytis cinerea): 0%
13 | CCC1(C(=O)NC(C)COc2c(F)cc(F)cc2F)C(C)C1(Cl)Cl (stereo not drawn) [compound 237] |  |  |  |  |  | Test A disease control rating (100 = 100% disease control, 0 = no disease control) [1]: 62%; Test B disease control rating (100 = 100% disease control, 0 = no disease control) (Puccinia recondita): 0%; Test C disease control rating (100 = 100% disease control, 0 = no disease control) (Pyricularia oryzae): 53%; Test D disease control rating (100 = 100% disease control, 0 = no disease control) (Phytophthora infestans): 9%; Test E disease control rating (100 = 100% disease control, 0 = no disease control) (Botrytis cinerea): 0%
14 | CCC1(C(=O)NC(C)COn2c(C#N)cc(Cl)c2C)C(C)C1(Cl)Cl (mixture of isomers) [140a] | 29% | 0% | 90% | 0% | 0% | 
15 | CCC1(C(=O)NC(C)COc2cccc(Cl)c2)C(C)C1(Cl)Cl (mixture of isomers) [82b] | 31% | 0% | 97% | 15% | 0% | 
16 | CC(COc1cccc(Br)c1)NC(=O)C(C#N)C(C)(C)C (mixture of isomers) [9a] | 0% | 0% | 53% | 0% | 0% | 
17 | C[C@H](COc1cc(F)cc(F)c1F)NC(=O)C(C#N)C(C)(C)C (single isomer, unassigned) [168a] | 76% | 0% | 74% | 0% | 58% | 
18 | CCC1(C(=O)NC(C)COc2cccc(C)c2)C(C)C1(Cl)Cl (mixture of isomers) [compound 96] |  |  |  |  |  | Test A disease control rating ([1]; tested at 40 ppm): 0%; Test B disease control rating (Puccinia recondita; tested at 40 ppm): 0%; Test C disease control rating (Pyricularia oryzae; tested at 40 ppm): 0%; Test D disease control rating (Phytophthora infestans; tested at 40 ppm): 90%; Test E disease control rating (Botrytis cinerea; tested at 40 ppm): 0%
19 | CCC1(C(=O)NC(C)COn2c(C#N)cc(Cl)c2C)C(C)C1(Cl)Cl (mixture of isomers) [140b] | 63% | 28% | 74% | 38% | 0% | 
20 | C[C@H](COc1cc(Cl)ccc1Cl)NC(=O)C(C#N)C(C)(C)C (single isomer, unassigned) [33b] | 0% | 67% | 100% | 80% | 0% | 
21 | CC(C)C(C#N)C(=O)NC(C)C(Oc1ccccc1C#N)c1ccccc1 (mixture of isomers) [compound 290] |  |  |  |  |  | Test A disease control rating (100 = 100% disease control, 0 = no disease control) [1]: 59%; Test B disease control rating (100 = 100% disease control, 0 = no disease control) (Puccinia recondita): 0%; Test C disease control rating (100 = 100% disease control, 0 = no disease control) (Pyricularia oryzae): 90%; Test D disease control rating (100 = 100% disease control, 0 = no disease control) (Phytophthora infestans): 0%; Test E disease control rating (100 = 100% disease control, 0 = no disease control) (Botrytis cinerea): 0%
22 | C[C@H](COc1cc(F)c(F)cc1F)NC(=O)C(C#N)C(C)(C)C (single isomer, unassigned) [188a] | 0% | 0% | 97% | 56% | 0% | 
23 | C[C@H](COc1ccc(F)cc1Br)NC(=O)C(C#N)C(C)(C)C (single isomer, unassigned) [165b] | 95% | 0% | 94% | 23% | 95% | 
24 | CCC1(C(=O)NC(C)COc2cc(Br)ccc2C#N)C(C)C1(Cl)Cl (stereo not drawn) [compound 246] |  |  |  |  |  | Test A disease control rating (100 = 100% disease control, 0 = no disease control) [1]: 53%; Test B disease control rating (100 = 100% disease control, 0 = no disease control) (Puccinia recondita): 0%; Test C disease control rating (100 = 100% disease control, 0 = no disease control) (Pyricularia oryzae): 97%; Test D disease control rating (100 = 100% disease control, 0 = no disease control) (Phytophthora infestans): 0%; Test E disease control rating (100 = 100% disease control, 0 = no disease control) (Botrytis cinerea): 0%
25 | CCC1(C(=O)NC(C)COc2cccc(F)c2F)C(C)C1(Cl)Cl (stereo not drawn) [compound 104] |  |  |  |  |  | Test A disease control rating ([1]; tested at 40 ppm): 84%; Test B disease control rating (Puccinia recondita; tested at 40 ppm): 0%; Test C disease control rating (Pyricularia oryzae; tested at 40 ppm): 97%; Test D disease control rating (Phytophthora infestans; tested at 40 ppm): 0%; Test E disease control rating (Botrytis cinerea; tested at 40 ppm): 0%
26 | CCC1(C(=O)NCCCn2cccc2)C(C)C1(Cl)Cl (stereo not drawn) [compound 145] | 0% | 9% | 0% | 20% | 0% | 
27 | CCC1(C(=O)NC(C)COc2cc(F)ccc2Br)C(C)C1(Cl)Cl (stereo not drawn) [compound 125] |  |  |  |  |  | Test A disease control rating ([1]; tested at 40 ppm): 90%; Test B disease control rating (Puccinia recondita; tested at 40 ppm): 0%; Test C disease control rating (Pyricularia oryzae; tested at 40 ppm): 99%; Test D disease control rating (Phytophthora infestans; tested at 40 ppm): 0%; Test E disease control rating (Botrytis cinerea; tested at 40 ppm): 0%
